Experimental data taken from BindingDB's records for doi:10.1021/jm00403a011 (Bristol Myers Squibb, 1988).
pIC50: −log10 of the molar value.

Target: D(2) dopamine receptor (Rattus norvegicus, UniProt P61169)
Assay: ChEBML_61437
Method: In vitro antagonistic activity against Dopamine receptor D2 was evaluated for the inhibition of [3H]spiperone binding

Sequence of D(2) dopamine receptor (P61169 whole entry): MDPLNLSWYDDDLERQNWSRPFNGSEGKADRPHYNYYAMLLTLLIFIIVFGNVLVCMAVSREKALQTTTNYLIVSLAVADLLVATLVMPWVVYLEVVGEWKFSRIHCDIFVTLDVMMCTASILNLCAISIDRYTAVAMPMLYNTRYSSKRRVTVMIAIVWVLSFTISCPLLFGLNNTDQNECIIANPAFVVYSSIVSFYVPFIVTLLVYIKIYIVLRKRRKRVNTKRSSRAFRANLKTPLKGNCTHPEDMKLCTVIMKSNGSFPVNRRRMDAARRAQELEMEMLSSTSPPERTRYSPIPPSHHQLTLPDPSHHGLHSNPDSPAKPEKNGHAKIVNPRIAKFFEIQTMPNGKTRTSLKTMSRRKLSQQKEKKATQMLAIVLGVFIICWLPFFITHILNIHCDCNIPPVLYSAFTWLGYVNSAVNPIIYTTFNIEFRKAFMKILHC

SMILES	pIC50
CCN(CC)CCNC(=O)c1cc(Cl)c(N)cc1OC(C)C(C)N=O (configuration not stated) [4-Amino-5-chloro-N-(2-diethylamino-ethyl)-2-(2-hydroxyimino-1-methyl-propoxy)-benzamide]	< 6.00
CCN(CC)CCNC(=O)c1cc(Cl)c(N)cc1OCC(C)N=O (configuration not stated) [4-Amino-5-chloro-N-(2-diethylamino-ethyl)-2-(2-hydroxyimino-propoxy)-benzamide]	< 6.00
